Tests used:
[1] = tested on: Trypanosoma cruzi; assay: (§1) GSK_TCAKS: pIC50 H2C9 Imaging: H9c2 Host Cardiomyocytes. […] Cells were then washed once with PBS before infection. T. cruzi trypomastigotes, collected at days 5 to 8 after infection from LLC-MK2 parasite infected cultures, were allowed to swim out for 4h at 37C from a centrifuged pellet (2,500 rpm/10 min/room temperature). Trypomastigotes were then collected and counted in a CASY Cell Counter. Trypomastigotes, in supplemented DMEM, were added to H9c2 cultures in a multiplicity of infection of 1 and incubated for 18 h. Cells were washed once with PBS before incubation of the infected H9c2 monolayer with trypsin (Life-Technologies) to detach cells from the flask. Cells were counted in a CASY Cell Counter using a 150 um capillary and their density set at 5 * 10^4 cells per mL in supplemented assay DMEM. Infected H9c2 were dispensed into 384-well poly-lysine coated assay plates at 50uL per well using a Multidrop Combi dispenser. After seeding them, the plates were incubated at 37C, 5% CO2 for 72h. Cultures were then fixed and stained by addition of 50 uL of a solution containing 8% formaldehyde and 4 uM DRAQ5 DNA dye (BioStatus, UK) per well. […] Five images were collected per well for reliable statistical analysis. Automated image analysis was performed with a script developed on Acapella High Content Imaging and Analysis Software (PerkinElmer). Output: Number of H9c2 Host Cardiomyocytes nuclei to determine drug-related cytotoxicity.; assay type: functional, organism-based, Rattus norvegicus; conditions: H9c2, 4 h
[2] = tested on: Trypanosoma cruzi; assay: as §1, with “Trypanosoma cruzi” for “H2C9”, “Amastigotes/Cell.” for “H9c2 Host Cardiomyocytes.”, “number” for “Number”, “amastigotes per cell as infection level measurement.” for “H9c2 Host Cardiomyocytes nuclei to determine drug-related cytotoxicity.”; assay type: functional, organism-based, Rattus norvegicus; conditions: H9c2, 4 h
[3] = tested on: Trypanosoma brucei brucei; assay: GSK_TCAKS: pIC50 Trypanosoma brucei viability assay using luminiscence. Assay plates (1536-well) were prepared. T. brucei cultures were harvested and counted in a CASY cell counter. A parasite suspension was prepared at a final concentration of 5 * 10^4 cells/mL in complete HMI9 medium and 6uL was dispensed to all wells containing compounds using a Multidrop Combi dispenser. 6uL of HMI9 media with 0.4% DMSO were dispensed to control columns. Plates were incubated for 24 h at 37C, 5% CO2 then tempered for 10 min at room temperature. ATP content was quantified by adding 4 uL of CellTiter-Glo Reagent (Promega) according to the manufacturer's instructions. Luminescence was measured using a ViewLux.; assay type: functional, organism-based; conditions: Lister 427, CASY
[4] = tested on: Leishmania donovani; assay: (§2) GSK_TCAKS: pIC50 Leishmania donovani Imaging: Amastigotes/Macrophages. Assay plates (384-well) were prepared by adding 250nL of compound to each well. For single shot assay, the final compound concentration was 5 uM. […] Automated image analysis was performed with a script developed on Acapella High Content Imaging and Analysis Software (PerkinElmer). Output: Average number of amastigotes per macrophage cell were reported for each well.; assay type: functional, organism-based, Homo sapiens; conditions: THP-1
[5] = tested on: NIH3T3; assay: GSK_TCAKS: pIC50 NIH 3T3 cell line viability assay using luminiscence. Tissue culture surface treated assay plates (1536-well) were used. […] The 100% cells survival control was determined exposing the host-cells to a 0.5% DMSO concentration, whereas the 100% toxicity control was achieved by seeding the cells in presence of Amphotericin B at 50uM. Plates were incubated for four days at 37C, 5% CO2. The assay readout was developed by addition of 5uL of CellTiter-Glo Reagent following the manufacturer's instructions. Luminiscence was measured using a ViewLux.; assay type: functional, cell-based; conditions: Mus musculus, NIH3T3, 96 h
[6] = tested on: Trypanosoma cruzi; assay: as §1, with “Trypanosoma cruzi” for “H2C9”, “Infected Cells.” for “H9c2 Host Cardiomyocytes.”, “percentage” for “Number”, “infected cells per well as a second infection marker.” for “H9c2 Host Cardiomyocytes nuclei to determine drug-related cytotoxicity.”; assay type: functional, organism-based, Rattus norvegicus; conditions: H9c2, 4 h
[7] = tested on: Leishmania donovani; assay: as §2, with “Infected Macrophages.” for “Amastigotes/Macrophages.”, “Percent” for “Average number”, “infected” for “amastigotes per”, “cells” for “cell”; assay type: functional, organism-based, Homo sapiens; conditions: THP-1
[8] = tested on: Leishmania donovani; assay: as §2, with “THP-1 Host Macrophages.” for “Amastigotes/Macrophages.”, “THP-1” for “Average number of amastigotes per macrophage”, “cell count” for “cell”; assay type: functional, organism-based, Homo sapiens
[9] = tested on: Trypanosoma brucei brucei; assay: GSK_TCAKS: pIC50 Trypanosoma brucei viability assay using fluorescence intensity. Assay plates (1536-well) were prepared by dispensing 25nL of compound solution per well using an Echo acoustic dispenser (Labcyte).; assay type: functional, organism-based; conditions: Lister 427, 2 h
[10] = tested on: Trypanosoma cruzi; assay: GSK_TCAKS: pIC50 Trypanosoma cruzi viability assay using beta-GAL activity. This assay was run at single shot at 5uM compound concentration per well. The biological reagents consisted of NIH-3T3 host cells and trypomastigotes parasitic cells; both cell types were set to a 3.3 * 10^5 cells/mL dilution in assay DMEM by means of a CASY cell counter device using a 60um capillary. 6 uL of the mixture were dispensed per well (about 1 * 10^3 host-cells and 1 * 10^3 parasites) with a Multidrop Combi dispenser. […] In all wells, the percentage of DMSO never exceeded 0.5%. Plates incubated for four days at 37C, 5% CO2. The substrate used for the assay fluorescence intensity (FLINT) readout was resorufin-beta-D-galactopiranoside (Sigma-Aldrich) at 5uM per well. It was diluted in PBS supplemented with the soft detergent Igepal (Fluka).; assay type: functional, organism-based, Mus musculus; conditions: Tulahuen, NIH3T3
[11] = GSK_TCAKS: pIC50 HepG2 human cell line viability assay using luminiscence. […] Seeding density was checked to ensure that new mono-layers were not more than 50% confluent at the time of harvesting. Cell suspension was added to 500 mL of the same medium at a final density of 1.2 * 10^5 cells/mL. This cell suspension was dispensed (25 uL, 3000 cells per well) into 384-well clear-bottom plates using a Multidrop Combi dispenser. Prior to addition of the cell suspension, the screening compounds (250 nL) were pre-dispensed into the plates with an Echo liquid handler. Plates were incubated for 48 h at 37C, 5% CO2. After incubation, plates equilibrated at room temperature for 30 min before proceeding to develop the luminescent signal. The signal developer, CellTiter-Glo Reagent, was allowed to equilibrate at room temperature for 30 min and added to the plates (25uL per well) using a Multidrop Combi dispenser. Plates were left for 10 min at room temperature for stabilization and then read using a ViewLux.; assay type: toxicity, cell-based
[12] = target: Sterol 14-alpha demethylase (Trypanosoma cruzi (strain CL Brener), UniProt Q7Z1V1); assay: GSK_TCAKS: pIC50 CYP51 from Trypanosoma cruzi.; assay type: functional
[13] = tested on: Leishmania donovani; assay: GSK_TCAKS: pIC50 Leishmania donovani viability assay using fluorescence intensity. Assay plates (1536-well) were prepared by adding 30nL per well of compound. For single shot assay, the final compound concentration was 5uM. […] Briefly, eGFP LdBOB axenic amastigotes were harvested, fixed and counted in a CASY cell counter (Roche-Applied Science). A final concentration of 1.5 * 10^5 cells per well were prepared in amastigote media containing 500 U/mL penicillin/streptomycin (Invitrogen) and 6uL was dispensed to each experimental well using a Multidrop Combi dispenser (Thermo Scientific). 6uL of assay media was dispensed to control columns used as reference for 100% compound response. Following incubation for 72 h at 37C, 5% CO2, 2 uL of resazurin was added to each well at a final concentration of 0.5 mM in phosphate buffered saline (PBS) with IGEPAL (Sigma-Aldrich), 0.05% (v/v).; assay type: functional, organism-based

Sequence of Sterol 14-alpha demethylase (Q7Z1V1 whole entry): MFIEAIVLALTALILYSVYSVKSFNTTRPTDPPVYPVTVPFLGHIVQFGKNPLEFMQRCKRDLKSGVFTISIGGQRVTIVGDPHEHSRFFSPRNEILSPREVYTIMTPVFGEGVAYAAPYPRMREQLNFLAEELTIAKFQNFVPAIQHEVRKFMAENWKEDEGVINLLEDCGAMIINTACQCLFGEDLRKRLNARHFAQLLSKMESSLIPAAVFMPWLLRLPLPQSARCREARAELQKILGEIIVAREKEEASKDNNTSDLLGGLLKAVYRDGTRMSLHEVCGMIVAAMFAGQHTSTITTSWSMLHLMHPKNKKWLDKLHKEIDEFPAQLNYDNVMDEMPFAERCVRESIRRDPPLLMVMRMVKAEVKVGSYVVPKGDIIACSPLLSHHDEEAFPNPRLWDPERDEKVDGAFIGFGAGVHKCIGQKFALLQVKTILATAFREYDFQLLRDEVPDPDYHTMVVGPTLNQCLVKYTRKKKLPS

Structure (SMILES) | IC50 [1] [µM] | IC50 [2] [µM] | IC50 [3] [µM] | IC50 [4] [µM] | IC50 [5] [µM] | IC50 [6] [µM] | IC50 [7] [µM] | IC50 [8] [µM] | IC50 [9] [µM] | IC50 [10] [µM] | IC50 at 48 h [11] [µM] | IC50 [12] [µM] | IC50 [13] [µM]
N#Cc1ccc(S(=O)(=O)N2CCC3(CCN(c4ccccc4)C3=O)CC2)cc1 | > 50.1 | 0.631 | > 39.8 | > 50.1 | > 50.1 | 1 | > 50.1 | > 50.1 | > 39.8 | 1.26 | > 100 | > 100 | > 50.1
COc1ccc(CN2CCCCC2c2nc(-c3cccnc3)no2)cc1 (stereo not drawn) | > 50.1 | 0.631 | > 39.8 | > 50.1 | > 50.1 | 0.794 | > 50.1 | > 50.1 | > 39.8 | 0.794 | > 100 | 0.2 | > 50.1
Cc1cc(N(C)C)nc(Nc2ccccc2C)n1 | > 50.1 | 0.501 | > 39.8 | 15.8 | 39.8 | 0.794 | 31.6 | 39.8 | 31.6 | 1.58 | 63.1 | > 100 | > 50.1
Cc1cc(Br)cc(C(=O)c2c(C(C)C)c(=O)[nH]c(=O)n2Cc2ccnc(N)c2)c1 | > 50.1 | 0.251 | 25.1 | 20 | 15.8 | 0.316 | 31.6 | 39.8 | 12.6 | 0.398 | > 100 | 0.0158 | > 50.1
COc1ccc(NS(=O)(=O)c2cc(NC(=O)c3ccc([N+](=O)[O-])s3)ccc2OC)cc1 | > 50.1 | 0.0794 | 0.126 | 0.794 | > 50.1 | 0.1 | 0.794 | 12.6 | 0.0501 | 0.0708 | > 100 | 1 | 0.501
Cc1c(C#N)c([N+](=O)[O-])nn1Cc1cccc(Cl)c1Cl | > 50.1 | 0.0398 | 25.1 | 15.8 | 39.8 | 0.1 | > 50.1 | 15.8 | 15.8 | 0.2 | 79.4 | > 100 | > 50.1
CS(=O)(=O)c1ccc(CC(=O)Nc2nc(-c3ccc(Cl)s3)cs2)cc1 | 15.8 | 0.398 | > 39.8 | > 50.1 | > 50.1 | 0.316 | > 50.1 | 15.8 | 10 | 0.398 | > 100 | > 100 | > 50.1
CC1=C(C(=O)Nc2ccc(Cl)cc2)C(c2ccncc2)n2ncc(C(=O)Nc3ccccc3)c2N1 (stereo not drawn) | > 50.1 | 0.02 | > 39.8 | > 50.1 | 31.6 | 0.02 | > 50.1 | 12.6 | 3.16 | 0.02 | 79.4 | 0.126 | 0.126
Oc1nccc2ccc(-c3ccncc3)cc12 | > 50.1 | 0.251 | > 39.8 | 20 | > 50.1 | 0.251 | > 50.1 | 39.8 | 31.6 | 0.2 | > 100 | 0.0158 | > 50.1
O=C(NCCc1cccnc1)c1csc(-c2ccccc2)n1 | > 50.1 | 0.398 | > 39.8 | > 50.1 | 50.1 | 0.501 | > 50.1 | > 50.1 | 25.1 | 0.282 | > 100 | 0.0631 | > 50.1
O=C(Nc1ccc(C(=O)N2CCCC2c2ccc3c(c2)OCCCO3)cc1)c1ccco1 (stereo not drawn) | > 50.1 | 0.631 | 0.316 | 3.16 | > 50.1 | 1 | 6.31 | > 50.1 | 0.2 | 0.501 | > 100 | 63.1 | 0.794
NC(=O)c1ccccc1Nc1nc(NC2CCCCC2)nc2[nH]ccc12 | 25.1 | 1 | 10 | 12.6 | 25.1 | 1 | 12.6 | 10 | 0.501 | 1 | 20 | > 100 | 20
CCC(=O)Nc1ccc(-c2nc3ccc(Cl)cc3[nH]2)cc1 | > 50.1 | 0.501 | > 39.8 | > 50.1 | > 50.1 | 1.58 | > 50.1 | > 50.1 | 6.31 | 2 | > 100 | > 100 | > 50.1
Cc1cccc(NS(=O)(=O)c2cnc3sc(C)cn3c2=O)c1 | 6.31 | 1 | > 39.8 | 5.01 | > 50.1 | 2 | > 50.1 | > 50.1 | > 39.8 | 1.26 | > 100 | > 100 | > 50.1
CN(Cc1cc2ccccc2s1)c1ncc2c(N)nc(N)nc2n1 | 20 | 0.794 | 25.1 | 25.1 | 25.1 | 3.16 | 31.6 | 25.1 | 31.6 | 2 | 39.8 | > 100 | 31.6
CC(=Cc1ccccc1)CN1CCC(=O)N(Cc2cccnc2)CC1 | > 50.1 | 0.501 | > 39.8 | 31.6 | > 50.1 | 0.501 | > 50.1 | 39.8 | > 39.8 | 0.251 | > 100 | 0.1 | > 50.1

From ChEMBL document CHEMBL3430912, “GSK Tres Cantos Anti-Kinetoplastid Screening (TCAKS) Data”
